Test results taken from patent publication EP2108954A1, “A test system for detecting intracellular cyclic nucleotide level and methods and uses thereof” (Max-Planck-Gesellschaft zur Förderung der Wissenschaften …, priority 2008, dated 2009).

What was measured:
Type in all cases: cell-based
Or83b = target: T1, Or83b (Drosophila melanogaster, UniProt Q9VNB5); assay: Whole-cell patch-clamp of HEK293 cells expressing Or83b alone; set-up: expressed in transfected cells; host or cells: HEK293; details: HEK293 cells transfected with Or83b alone; whole-cell, -60 mV; n = 6
T1 sequence (Q9VNB5 1-486): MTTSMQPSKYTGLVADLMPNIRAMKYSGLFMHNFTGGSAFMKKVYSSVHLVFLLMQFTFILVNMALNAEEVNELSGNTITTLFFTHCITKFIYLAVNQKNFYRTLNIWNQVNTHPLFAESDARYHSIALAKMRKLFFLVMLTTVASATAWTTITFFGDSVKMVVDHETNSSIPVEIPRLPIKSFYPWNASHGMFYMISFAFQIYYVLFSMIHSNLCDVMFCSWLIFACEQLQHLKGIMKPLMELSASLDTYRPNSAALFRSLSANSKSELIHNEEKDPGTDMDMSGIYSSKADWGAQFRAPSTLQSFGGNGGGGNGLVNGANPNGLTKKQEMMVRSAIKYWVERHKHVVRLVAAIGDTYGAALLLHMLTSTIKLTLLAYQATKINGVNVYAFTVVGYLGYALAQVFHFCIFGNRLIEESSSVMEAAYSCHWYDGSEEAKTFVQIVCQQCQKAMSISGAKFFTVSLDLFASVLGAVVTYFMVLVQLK
Procedure: In some experiments we transfected cells with pcDNA3-DOR22a-GFP or pcDNA3-DOR83b-GFP alone. We also examined the properties of DOR47a, which was cloned, using standard molecular biology methods into a pcDNA3.1(-) expression vector. To test for putative G-protein coupling, cells were transfected with the respective OR-DNA together with 1.5 µg hHCN2/pcDNA3 (provided by M. Biel, Munich, Germany), with 1 µg hKCNQ4/pcDNA3.1 or with 1 µg hCNGA2/pCMV6-XL4 (Origene, Rockville, MD, USA).
In brief, ion currents in HEK293 cells were measured at room temperature using whole-cell patch-clamp with appropriate compensation of series resistance and of capacitive currents. Additional experiments were performed in the outside-out configuration. Current measurements and data acquisition were performed using an EPC9 patch-clamp amplifier controlled by PatchMaster software (both HEKA Elektronik, Lambrecht, Germany). Patch-clamp pipettes were fabricated from borosilicate capillaries. Pipettes for whole-cell recordings had resistances of 2-4 MΩ for excised-patch recordings the pipette resistance was up to 15 MΩ.
To differentiate between ionotropic and metabotropic pathways of receptor activation (Fig. 2a-d) the pipette solution contained either 2 mM ATP plus 2 mM GTP or 2 mM ADP plus 2 mM GDP (both for whole-cell and outside-out configuration). For the preparation of Cl^--free solutions the chloride salts were substituted by gluconate salts. The pipette Cs^+ solution contained (in mM) 140 CsCl, 1 Mg-ATP, 10 EGTA, 10 HEPES (pH = 7.3), and the Cs^+ bath solution contained (in mM) 140 CsCl, 15 glucose, 15 HEPES (pH = 7.4). The Ca^2+-free bath solution contained (in mM) 140 NaCl, 15 glucose, 15 HEPES, and the Na^+-free bath solution contained (in mM) 140 NMDG-Cl, 10 CaCl2, 10 glucose, 15 HEPES.
With the exception of GDP-γ-S, which was applied via the patch pipette, all substances were applied to the bath using either a bath perfusion system (BPS4 from ALA, New York, USA) or a rapid solution changer (RSC160 from Biologic, Claix, France) which were controlled by the PatchMaster software (HEKA Elektronik).

Or22a and Or83b [1] = target: T2, Or22a and Or83b (Drosophila melanogaster, UniProt P81909+Q9VNB5); assay: Calcium imaging (fura-2) in HEK293 cells coexpressing Or22a and Or83b; details: dependent on Etb concentration and on extracellular Ca^2+
T2 construct: expressed in transfected cells; host or cells: HEK293
T2 sequence (P81909 1-397): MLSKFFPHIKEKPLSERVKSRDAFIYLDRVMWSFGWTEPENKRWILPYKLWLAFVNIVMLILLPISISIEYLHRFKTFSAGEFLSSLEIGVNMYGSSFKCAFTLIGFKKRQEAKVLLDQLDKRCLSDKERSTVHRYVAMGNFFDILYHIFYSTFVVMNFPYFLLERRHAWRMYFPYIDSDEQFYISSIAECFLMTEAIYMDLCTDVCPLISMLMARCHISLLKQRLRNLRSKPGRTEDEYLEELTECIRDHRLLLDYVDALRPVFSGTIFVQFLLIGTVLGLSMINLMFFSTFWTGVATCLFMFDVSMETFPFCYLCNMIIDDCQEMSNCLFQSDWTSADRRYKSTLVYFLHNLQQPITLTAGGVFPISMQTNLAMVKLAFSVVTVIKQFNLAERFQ
T2 sequence (Q9VNB5 1-486): T1 sequence (Q9VNB5 1-486)
Procedure: Free intracellular Ca^2+ concentration ([Ca^2+]i) was determined by fura-2 fluorescence as described (Messutat et al., Cell Calcium 30, 199-211. (2001)). In brief, cells were loaded with fura-2 by incubation in bath solution containing 2 µM fura-2/acetomethylester for 20 min. Free intracellular Ca^2+ concentration ([Ca^2+]i) was determined with the fluorescence ratio method. Excitation of fura-2 at 340 and 380 nm was performed with a monochromator (Polychrome II, T.I.L.L. Photonics, Gräfelfing, Germany) coupled via an epifluorescence condenser into an Axioskop FS microscope (Carl Zeiss, Jena, Germany) with a water immersion objective (LUMPFL 40xW/IR/0.8; Olympus, Hamburg, Germany). […] [Ca^2+]i was calculated according to the equation [Ca^(2 +)]i = Keff (R-Rmin)/(Rmax-R). […] Keff, Rmin, and Rmax were determined using HEK293 cells permeabilized with 2 µM ionomycin and three solutions with different concentrations of free Ca^2+ (Ca^2+ free; 5 mM Ca^2+; 500 nM Ca^2+; the composition of the 500 nM solution was calculated with WEBMAXC v.2.20) (Patton et al., Cell Calcium 35, 427-31 (2004)). […]
Fluorescence images were acquired using a cooled CCD camera controlled by TILLVision 4.0 software (T.I.L.L. Photonics). […] Image pairs were obtained by excitation for 100 ms at 340 nm and 380 nm; background fluorescence was subtracted.

Or22a and Or83b [2] = target: T2, Or22a and Or83b; assay: Whole-cell patch-clamp of currents in HEK293 cells coexpressing Or22a and Or83b; details: 500 µM GDP-β-S in the pipette; n = 11

With `CCCC(=O)OCC` [Etb, ethyl butyrate] the “inward current upon short Etb application” value (Or83b) was “no current was observed”, the “intracellular Ca^2+ concentration ([Ca^2+]i)” value (Or22a and Or83b [1]) was “increased intracellular Ca^2+ concentration” and the “Hill coefficient of Etb-induced currents” value (Or22a and Or83b [2]) was 1.1.
